Experiment [1] has as its system C. albicans. Nature of the experiment: Minimum Inhibitory Concentration (MIC) (C. albicans), CLSI M27-A2. Format: cell-based. The following applies: Candida albicans; about 50% growth reduction; approx. 48 h at 35 °C. As to the method:
A. Minimum Inhibitory Concentration (MIC) (C. albicans) Compounds of the present disclosure were assessed for their ability to inhibit the growth of common strains of fungus, C. albicans using a standardized procedure (CLSI M27-A2). Stock solutions of the test compounds and standards were prepared in DMSO at 1,600 μg/mL (C. albicans). Eleven, serial, one-half dilutions of compounds were prepared in 96-well plates in RPMI+MOPS. The assay concentration ranges were 8-0.001 μg/mL (C. albicans). Cell suspensions of C. albicans were prepared and added to each well at concentrations of approximately 3.7×10^3 colony-forming-units per milliliter (cfu/mL). All testing was in duplicate. The inoculated plates were incubated for approximately 48 h at 35±1° C. At the completion of incubation the wells of each plate were evaluated visually for the presence of fungal growth. […] For QC purposes C. krusei isolate ATCC 6258 (4.0×10^3 cfu/mL) was included in the VOR assay.

Experiment [2] concerns the target CYP3A4 (Homo sapiens (Human), UniProt P08684). Nature of the experiment: biochemical.
Protocol: (§1) B Inhibition of Liver Cytochrome P450 Enzymes
(§2) Solutions of each test compound were separately prepared at concentrations of 20000, 6000, 2000, 600, 200, and 60 μM by serial dilution with DMSO:MeCN (50:50 v/v). The individual test compound solutions were then diluted 20-fold with DMSO:MeCN:deionized water (5:5:180 v/v/v) to concentrations of 1000, 300, 100, 30, 10, and 3 μM. Mixtures of isozyme inhibitors (sulfaphenazole, tranylcypromine, and ketoconazole as specific inhibitors of isozymes 2C9, 2C19, and 3A4, respectively) were prepared containing each inhibitor at concentrations of 6000, 2000, 600, 200, 60, 20, 6, and 2 μM by serial dilution with DMSO:ACN (50:50 v/v). […]
(§3) Pooled human liver microsome suspension (20 mg/mL) was diluted with phosphate buffer to obtain a 5 mg/mL suspension. […] Separate stock solutions of each substrate were prepared in DMSO:MeCN (50:50 v/v), mixed, and diluted in phosphate buffer to obtain a single solution containing each substrate at five times its experimentally determined Km concentration. […]
(§4) Substrate solution and microsome suspension were combined in a 1:1 volume ratio, mixed, and distributed to reaction wells of a PCR plate. […] A portion of the supernatant was analyzed by gradient reverse-phase HPLC with detection by electrospray ionization triple quadrupole mass spectrometry in the positive ion mode. […]
In experiment [3] the target is CYP2C19 (Homo sapiens (Human), UniProt P33261). Nature of the experiment: biochemical.
Protocol: as §1, §2, §3, §4
In experiment [4] the target is CYP2C9 (Homo sapiens (Human), UniProt P11712). The experiment is described as follows: biochemical.
Protocol: as §1, §2, §3, §4

These results are taken from US8883797B2, “Metalloenzyme inhibitor compounds” (Viamet Pharmaceuticals, Inc., priority 2011, dated 2014).

Broadly, the MIC is the lowest concentration that inhibits growth of the organism. The term IC50 denotes the midpoint of a concentration-inhibition curve.

The structures appear in SMILES notation. In brackets after ≈: the same amount, converted by molar mass.

CYP3A4, sequence (P08684 whole entry): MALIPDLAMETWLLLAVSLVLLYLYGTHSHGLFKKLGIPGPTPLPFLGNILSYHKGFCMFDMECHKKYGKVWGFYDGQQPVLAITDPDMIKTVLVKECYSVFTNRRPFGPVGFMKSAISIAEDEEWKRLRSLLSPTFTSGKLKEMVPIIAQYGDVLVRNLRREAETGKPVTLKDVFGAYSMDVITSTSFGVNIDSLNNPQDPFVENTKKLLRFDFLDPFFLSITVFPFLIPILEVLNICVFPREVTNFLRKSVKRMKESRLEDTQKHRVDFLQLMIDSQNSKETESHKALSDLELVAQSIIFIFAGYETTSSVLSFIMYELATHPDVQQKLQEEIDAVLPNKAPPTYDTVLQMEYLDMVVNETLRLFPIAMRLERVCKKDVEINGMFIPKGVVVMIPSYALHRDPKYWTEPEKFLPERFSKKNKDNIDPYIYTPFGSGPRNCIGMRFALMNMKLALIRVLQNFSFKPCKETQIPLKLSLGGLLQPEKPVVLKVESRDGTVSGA
CYP2C9, sequence (P11712 whole entry): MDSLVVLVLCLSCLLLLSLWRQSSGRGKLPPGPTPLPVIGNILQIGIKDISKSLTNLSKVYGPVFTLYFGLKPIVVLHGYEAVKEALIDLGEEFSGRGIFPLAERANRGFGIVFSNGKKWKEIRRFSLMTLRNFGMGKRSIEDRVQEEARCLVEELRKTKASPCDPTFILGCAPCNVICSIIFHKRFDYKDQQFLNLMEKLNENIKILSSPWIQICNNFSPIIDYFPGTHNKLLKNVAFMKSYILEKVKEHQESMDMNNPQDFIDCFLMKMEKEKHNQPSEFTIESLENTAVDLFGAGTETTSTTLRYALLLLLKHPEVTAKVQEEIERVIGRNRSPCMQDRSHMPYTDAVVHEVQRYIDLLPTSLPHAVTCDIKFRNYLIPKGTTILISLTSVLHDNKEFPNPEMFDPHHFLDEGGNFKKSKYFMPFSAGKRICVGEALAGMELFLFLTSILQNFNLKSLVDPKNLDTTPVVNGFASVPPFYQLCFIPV
CYP2C19, sequence (P33261 whole entry): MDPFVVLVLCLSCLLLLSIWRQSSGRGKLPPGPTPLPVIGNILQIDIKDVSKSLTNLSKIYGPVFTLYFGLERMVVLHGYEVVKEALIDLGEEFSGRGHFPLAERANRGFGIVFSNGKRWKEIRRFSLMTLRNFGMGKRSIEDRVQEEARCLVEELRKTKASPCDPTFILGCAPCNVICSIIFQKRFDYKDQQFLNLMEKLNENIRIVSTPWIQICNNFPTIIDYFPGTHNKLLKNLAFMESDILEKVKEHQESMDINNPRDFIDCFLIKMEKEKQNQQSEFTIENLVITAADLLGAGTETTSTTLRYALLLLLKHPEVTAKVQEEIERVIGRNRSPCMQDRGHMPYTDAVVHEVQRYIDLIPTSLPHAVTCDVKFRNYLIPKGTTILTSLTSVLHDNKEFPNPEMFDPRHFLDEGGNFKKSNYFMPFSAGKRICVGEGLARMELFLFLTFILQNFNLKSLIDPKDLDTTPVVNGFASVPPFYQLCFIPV

`OC(Cn1cncn1)(Cn1cncn1)c1ccc(F)cc1F` [Fluconazole, reference compound] returned an MIC in experiment [1] of 0.5 µg/mL (≈ 1.63 µM).
For the compound `OC(Cn1cnnn1)(c1ccc(F)cc1F)C(F)(F)c1ccc2cc(Br)ccc2n1` (stereo not shown) [Compound 9, 1-(6-Bromoquinolin-2-yl)-2-(2,4-difluorophenyl)-1,1-difluoro-3-(1H-tetrazol-1-yl)propan-2-ol], the IC50 in experiment [2] was determined as 11 µM; in experiment [3], 12 µM; in experiment [4], 13 µM. Moreover, in experiment [1], 0.016 µg/mL (≈ 0.0332 µM) was the least that counted as inhibitory (MIC).
For `OC(Cn1cnnn1)(c1ccc(F)cc1F)C(F)(F)c1cnc2cc(Cl)ccc2n1` (stereo not shown) [Compound 10, 1-(6-Chloroquinoxalin-2-yl)-2-(2,4-difluorophenyl)-1,1-difluoro-3-(1H-tetrazol-1-yl)propan-2-ol], in that order: 45 µM, 29 µM, 42 µM and 0.125 µg/mL (≈ 0.285 µM).
As for `C[C@@H](c1ncncc1F)[C@](O)(Cn1cncn1)c1ccc(F)cc1F` [Voriconazole, reference compound], it took 0.016 µg/mL (≈ 0.0458 µM) to inhibit growth in experiment [1] (MIC).
